For 121 compounds, melting point results are on record in a melting point compilation (Tetko et al.).

Molecules are shown by their SMILES.

For orientation: melting point means the temperature, or range, at which the solid turns liquid. Regarding `O=C(O)c1ccc(-n2cnnn2)cc1`, the melting point was 220 to 230 °C. In the case of `CNCCCc1n[nH]c(N)c1C#N`, the melting point is 179 to 181 °C. For `Nn1c(S)nnc1-c1ccc(Br)cc1` the value was 202 to 204 °C. In turn, `Cc1ccnc(NC(=O)C2CCNCC2)c1` yielded a melting point of 134 to 136 °C. For `CS(=O)(=O)c1cccc(C(N)c2ccc(Cl)cc2)c1` (stereo unspecified) the value was 94 to 96 °C. Next, `Cn1cc(/C=C/[N+](=O)[O-])cn1`: 127 to 129 °C; `CC(C)(C)OC(=O)NC(Cc1ccccc1)C(O)C(F)(F)F` (stereo unspecified): 149 to 151 °C. For `NCCS(=O)(=O)N1CCSCC1` the value was 59 to 61 °C. `O=Cc1ccc(-c2ccc(C(F)(F)F)cc2)s1` had a melting point of 124 to 126 °C. For `Nc1ccc(CC(=O)N2CCOCC2)cc1` the value was 164 to 166 °C; for `OC(C1CCCCN1)C(F)(F)F` (stereo unspecified), 94 to 96 °C. For `CCc1cc2c(CCl)cc(=O)oc2cc1O` the value was 216 to 218 °C; for `CC(CC(=O)O)NC(=O)OC(C)(C)C` (stereo unspecified), 94 to 96 °C. Next, `COC(=O)c1cc2cc(CBr)ccc2o1`: 108 to 110 °C; `O=C(O)c1cccc(NS(=O)(=O)c2ccc3ccccc3c2)c1`: 205 to 207 °C; `COc1ccc(-c2nn(CCC#N)cc2C(=O)O)cc1[N+](=O)[O-]`: 190 to 192 °C. `O=C(O)CC1CCOc2ccccc21` (stereo unspecified) had a melting point of 89 to 91 °C. For `NC(=S)C1(NC(=O)c2ccccc2)CCCCC1` the value was 189 to 191 °C. For `CN(C)S(=O)(=O)c1cccc(S(=O)(=O)Cl)c1` the value was 97 to 99 °C; for `CC(=O)N1CCc2ccc(S(=O)(=O)Cl)cc21`, 144 to 146 °C. Next, `Cc1n[nH]c(C)c1SCC(=O)O`: 153 to 155 °C; `O=C(O)CNS(=O)(=O)C1CCS(=O)(=O)C1` (stereo unspecified): 306 to 308 °C; `Cc1ccc(C(=O)Nc2ccccc2N)cc1`: 154 to 156 °C. Turning to `CC(C)(C)C(=O)c1ccsc1N`, the melting point fell in the range of 101 to 103 °C. Next, `Clc1ccc(N2CCCC2)nn1`: 115 to 116 °C; `c1cncc(CNC2=NCCS2)c1`: 90 to 92 °C; `CC(C(=O)c1ccccc1)N1C(=O)CCC1=O` (stereo unspecified): 107 to 109 °C.

As to `Cc1csc(NC(=O)CCl)n1`, the melting point is 127 to 129 °C.

Regarding `Cc1ccc(-c2nc(CC(=O)O)cs2)cc1`, the melting point lay within 139 to 141 °C.

Take `COc1cc(C(=O)O)n(-c2ncccc2Cl)n1`: the melting point fell in the range of 242 to 244 °C.

In turn, `N#Cc1nnc2ccccc2c1Cl` gave a melting point of 179 to 181 °C.

Regarding `Cc1cc2ccc(Cl)cc2nc1NN`, the melting point lay within 169 to 171 °C. For `COC(=O)c1ccc(CNc2ccc3c[nH]nc3c2)cc1` the value was 152 to 154 °C; for `COc1ccc(C(=O)CCl)cc1F`, 88 to 92 °C; for `O=C(O)Cn1nnc(-c2cccs2)n1`, 220 to 222 °C. For `CCOC(=O)c1ccc(-n2c(C)nc3ccccc3c2=O)cc1` the value was 173 to 175 °C. The compound `COc1ccccc1S(=O)(=O)Cl` gave a melting point of 115 to 119 °C. Next, `CCOC(=O)c1cc(Cl)cc(Br)c1N`: 57 to 59 °C.

`CC(N)=C(C#N)C(=O)O` had a melting point of 319 to 321 °C. Next, `COc1ccccc1-n1nnnc1S`: 153 to 155 °C. For `CCn1c(C)nc2cc(C(=O)NN)ccc21` the value was 183 to 185 °C. For `Cc1ccc(NC(=O)CCl)c(C)c1` the value was 153 to 155 °C; for `COC(=O)COc1ccc(N)c2ccccc12`, 83 to 85 °C. For `NNC(=O)c1c(Cl)cccc1Cl`, the melting point is 180 to 182 °C. For `Cc1noc(C)c1CC(=O)O` the value was 117 to 119 °C. For `Cc1cc(C(=O)CCl)c(C)n1-c1ncn[nH]1` the value was 180 to 182 °C; for `CCC1(CC)CC(=O)NC1=O`, 82 to 84 °C. Next, `COCCNC(=O)CC#N`: 78 to 80 °C; `Cn1cc(C(=O)O)c(-c2coc3ccccc23)n1`: 277 to 279 °C; `O=C(O)c1cc(F)cc(S(=O)(=O)Cl)c1`: 136 to 138 °C.

The compound `O=C(O)CC1OCCc2ccccc21` (stereo unspecified) returned a melting point of 74 to 76 °C. For `CC(C)(C)n1cc(C#N)c(N)n1` the value was 121 to 123 °C; for `COC(=O)c1ccc2ccccc2n1`, 83 to 85 °C; for `COC(=O)c1cc(C)ccc1N`, 58 to 60 °C. For `O=C(Nc1ccc(O)cc1)c1cccc([N+](=O)[O-])c1` the value was 222 to 224 °C. For `CC(C)C(=O)CNC(=O)c1ccc([N+](=O)[O-])cc1` the value was 106 to 108 °C; for `COc1ccc(S(=O)(=O)Cl)c(C)c1F`, 90 to 92 °C. Compound `O=C(CSc1cccs1)Nc1ccc(C(=O)O)cc1` gave a melting point of 233 to 235 °C. For `O=S(=O)(F)c1ccc(Br)cn1`, the melting point lay in the range of 92 to 94 °C. For `CCOC(=O)COc1ccc(C#N)cc1OC` the value was 69 to 71 °C; for `CC(=O)NCc1ccc(S(N)(=O)=O)cc1`, 170 to 172 °C; for `CC(C)Cc1ccc(C(=O)CBr)cc1`, 37 to 39 °C.

For `Cn1cnc2c(Br)cccc21`, the melting point was in the range of 101 to 103 °C.

In the case of `CC(C)c1ccc(S(=O)(=O)NCCC(=O)O)cc1`, the melting point is 195 to 205 °C. Consider `COc1ccc(S(N)(=O)=O)cc1NC(=O)CCl`, for which the melting point lay in the range of 169 to 171 °C. For `COCCOc1ccc(Cl)cc1C#N` the value was 64 to 66 °C; for `CCOc1ccc(NC(N)=S)cc1`, 164 to 166 °C. For `CCOC(=O)c1cnn2cc(Br)cnc12` the value was 141 to 143 °C; for `CS(=O)(=O)Cc1ccc(N)cc1F`, 152 to 154 °C. In turn, `COc1cc(S(=O)(=O)Cl)cc(C(=O)O)c1OC` had a melting point of 159 to 161 °C. For `CN(C(N)=O)c1ccccc1` the value was 75 to 77 °C; for `Nc1ccnc(OC2CCCCC2)c1`, 114 to 116 °C. For `O=C(CCl)NCC1Cc2ccccc2O1` (stereo unspecified) the value was 94 to 96 °C; for `Cc1nn(CC(=O)O)c(C)c1/C=N/O`, 203 to 205 °C; for `CC1(CCc2ccccc2)NC(=O)NC1=O` (stereo unspecified), 179 to 181 °C. Next, `CC(C)(C)OC(=O)Nc1cc2c(cc1N)OCO2`: 93 to 95 °C. In turn, `COC(=O)c1cc([N+](=O)[O-])cc([N+](=O)[O-])c1OC` had a melting point of 69 to 71 °C. Next, `Cc1nc2scc(-c3ccccc3)c2c(=O)n1N`: 134 to 136 °C; `Cc1nn(-c2ccc(F)cc2F)c(C)c1C(=O)O`: 229 to 231 °C. For `CCCCC(NC(=O)C(C)NC(C)=O)C(=O)O` (stereo unspecified) the value was 143 to 145 °C; for `O=C(CCCl)Nc1ccc(Cl)cc1`, 124 to 126 °C. For `CC(C)(C)OC(=O)NC1CCCC(C(=O)O)C1` (stereo unspecified) the value was 126 to 128 °C.

On to `COC(=O)c1cc(S(=O)(=O)Cl)ccc1Br`, for which the melting point was 89 to 91 °C. Next, `Cc1nn2c(nc(Cl)c3ccccc32)c1Cl`: 176 to 178 °C; `OCc1cnn(-c2ccccc2)n1`: 70 to 72 °C; `COC(C#N)c1ccc([N+](=O)[O-])cc1` (stereo unspecified): 42 to 44 °C.

`CC(C)(C)OC(=O)N1CC(OCCC(=O)O)C1`: the melting point was 52 to 54 °C. For `O=C(O)c1cc(/C=C/c2cccc(C(F)(F)F)c2)nc2ccc(Br)cc12` the value was 310 to 312 °C; for `O=c1c2ccccc2nc(S)n1-c1ccc(Cl)cc1`, 336 to 338 °C. In turn, `CC(=O)c1ccc(OCC#N)cc1` returned a melting point of 82 to 84 °C. Next, `O=C(Nc1ccc(-n2cncn2)nc1)OCC(F)(F)F`: 192 to 194 °C; `CC(=O)Nc1cccc2c1CCNC2`: 141 to 143 °C. Next, `NNc1ccc(S(=O)(=O)N2CCCC2)cn1`: 164 to 166 °C; `CCn1c(C)cc(C=O)c1C`: 87 to 89 °C. Next, `CC1CCC(=CC(=O)O)CC1` (stereo unspecified): 61 to 63 °C. With `O=C1C=C(O)C(=O)c2ccccc21`, the melting point lay within 192 to 194 °C. Turning to `Nc1cc(Cl)ccc1-n1ccnc1`, the melting point is 154 to 156 °C. For `CN(C)S(=O)(=O)c1cccc(NC(=O)CCl)c1`, the melting point fell in the range of 74 to 78 °C. Next, `Cc1n[nH]c(C)c1-c1ccccc1N`: 162 to 164 °C.

As for `COc1cccc(-n2cncn2)c1`, the melting point was 95 to 97 °C. `Nc1nc(N2CCOCC2)ns1` showed a melting point of 187 to 189 °C. For `O=C(NCc1ccc2c(c1)OCO2)n1ccnc1` the value was 108 to 110 °C; for `Cc1sc2nc(C(C)Cl)[nH]c(=O)c2c1C` (stereo unspecified), 215 to 217 °C; for `NC(=O)Nc1cccc(Br)c1`, 163 to 167 °C. Compound `CCCNC(=O)c1cccc(O)c1` showed a melting point of 68 to 70 °C. Next, `Cc1nc(N)sc1-c1ccccc1`: 163 to 165 °C; `Nc1ccc(CCN2CCOC2=O)cc1`: 192 to 194 °C. Next, `NC(CCN1CCOCC1)=NO`: 159 to 161 °C; `C#CCNS(=O)(=O)c1cccc(C(=O)O)c1`: 168 to 172 °C. Next, `Nc1ccc(-c2cc3ccccc3o2)cc1`: 281 to 283 °C; `O=C1COc2cccc(S(=O)(=O)Cl)c2N1`: 96 to 98 °C. For the compound `Nc1nc(C=Cc2ccccc2)cs1`, the melting point lay in the range of 147 to 149 °C. Take `O=S(=O)(F)Cc1ccccc1Cl`: the melting point was in the range of 69 to 71 °C. Next, `CC(C)(C)Oc1ccc(C(N)=S)cc1`: 179 to 181 °C; `COCCOc1ccc(C(=O)O)cc1OC`: 149 to 151 °C; `Cn1c(Cl)cnc1CC#N`: 142 to 144 °C. Next, `COC(=O)c1nc(Cl)ccc1Cl`: 53 to 55 °C; `CCCC(=O)c1cccc([N+](=O)[O-])c1`: 59 to 63 °C. Next, `O=[N+]([O-])c1ccc(Oc2ccccc2Br)c(Cl)c1`: 86 to 88 °C. In turn, `COC(=O)c1ccc(C(=O)OC)c(NC(=O)C(C)Cl)c1` (stereo unspecified) had a melting point of 128 to 130 °C. `CCCN(C(=O)c1ccccc1N)C(C)C`: the melting point is 64 to 66 °C.
